Measured values from US20240174622A1, “COMPOUND AND RADIOACTIVE LABELING COMPOUND” (NIHON MEDI-PHYSICS CO., LTD., priority 2021, published 2024).

What was measured:
[1] = tested on: LNCaP cells (PSMA-positive, human prostate cancer); experiment: Binding assay using cultured cells (LNCaP); assay type: cell-based; settings: for binding to LNCaP cells on adding an excess amount of the PSMA inhibitor (2-PMPA): 2-PMPA final concentration 100 μM
Description: LNCaP cells (PSMA-positive, human prostate cancer) and PC-3 cells (PSMA-negative, human prostate cancer) were used. These cells were purchased from American Type Culture Collection and DS Biomedical, respectively. Each of the cells were cultured in RPMI 1640, which is manufactured by NACALAI TESQUE, INC. and contains antibiotics (penicillin and streptomycin) and 10% inactivated fetal bovine serum, at 37° C. under 5% CO2.
The LNCaP cells and PC-3 cells were each seeded on a 12 well plate at 4.0×10^5 cells/well, and left standing at 37° C. under 5% CO2 for 48 hours.
The culture medium was removed, and an assay medium (0.5% FBS-containing RPMI 1640 medium) solution (1 mL) containing [^111In]In-PSMA-DA1 or [^111In]In-PSMA-DB (37 kBq) was added. Thereafter, the plate was allowed to stand at 37° C. under 5% CO2 for 1 hour.
(§1) In the inhibition assays, after removing the culture medium, an assay medium (1 mL) solution containing: [^111In]In-PSMA-DA1 or [^111In]In-PSMA-DB (37 kBq); and 2-(phosphonomethyl) pentanedioic acid (2-PMPA) (PSMA inhibitor; final concentration: 100 μM) was added. Thereafter, the plate was allowed to stand at 37° C. under 5% CO2 for 1 hour.
After removing the assay medium, each well was washed with an assay medium (1 mL) containing neither the radiolabeled compound nor 2-PMPA, and the cells were lysed with 1 N aqueous sodium hydroxide solution (200 μL×2).
The radioactivity for each of the assay medium and the cell lysate was measured with a gamma counter. Separately, the total protein concentration in the cell lysate was calculated using BCA Protein Assay Kit, which is manufactured by Thermo Fisher Scientific K.K. The value (% ID/mg protein) obtained by dividing the percentage (% ID) of the sample's radioactivity amount to the added radioactivity amount by the total protein amount was calculated for each sample.
In the same manner as in Example 1-1 described above, LNCaP cells and PC-3 cells were cultured and cell-binding assay were performed. Evaluation was carried out by the same experimental procedure and statistical method as in Example 1-1, except that 0.5% FBS-containing RPMI 1640 medium (1 mL) containing [^111In]In-PtDA (37 kBq) was used.
LNCaP cells and PC-3 cells cultured in the same method as in Example 1-1 were each seeded on a 12 well plate at 4.0×10^5 cells/well, and left standing at 37° C. under 5% CO2 for 48 hours. The culture medium was removed, and an assay medium (0.5% FBS-containing RPMI 1640 medium) solution (1 mL) containing the radiolabeled compound (37 kBq each) in Examples 3-1 to 3-3 or Comparative Examples 2-1 to 2-2 was added. Thereafter, the plate was allowed to stand at 37° C. under 5% CO2 for 1 hour.
as §1, with “experiments,” for “assays,”, “mL)” for “mL) solution”, “the radiolabeled compound described above;” for “[^111In]In-PSMA-DA1 or [^111In]In-PSMA-DB (37 kBq);”
After removing the assay medium, each well was washed with assay medium (1 mL), and the cells were lysed with 1 N aqueous sodium hydroxide solution (200 μL×2).
Radioactivity of each of the cell lysates was measured with a gamma counter. Separately, the total protein concentration in the cell lysate was calculated using BCA Protein Assay Kit, which is manufactured by Thermo Fisher Scientific K.K. The value (% ID/mg protein) obtained by dividing the percentage (% ID) of the sample's radioactivity amount to the added radioactivity amount by the total protein amount was calculated for each sample.
LNCaP cells and PC-3 cells cultured in the same method as in Example 1-1 were each seeded on a 12 well plate at 4.0×10^5 cells/well, and left standing at 37° C. under 5% CO2 for 48 hours.
Thereafter, the plate was allowed to stand at 37° C. under 5% CO2 for 1 hour. […]

[2] = target: T1, plasma albumin (mouse plasma) (Mus musculus, UniProt P07724); experiment: Evaluation of binding to albumin (mouse plasma); settings: for radioactivity in the eluate (in words): left to stand in mouse plasma
T1 construct: from tissue; host or cells: mouse plasma
Description: (§2) A PBS solution (37 kBq, 50 μL) of [^111In]In-PSMA-DA1 or [^111In]In-PSMA-DB was added to 200 μL of PBS, mouse plasma, human plasma, or a human serum albumin (HSA) solution (45 mg/mL) in PBS, respectively, and the mixtures were allowed to stand at 37° C. for 10 minutes. Thereafter, the reaction liquids were added to a spin column ([…]; manufactured by Cytiva), and centrifuged at 1500×g at 4° C. for 2 minutes. After separation, the radioactivity for each of the column and the eluate was measured with a gamma counter.
(§3) When a compound to be evaluated binds to albumin to form a composite, the compound passes through the column because of the increased molecular size.
(§4) As in Example 1-1 described above, PBS, mouse plasma, human plasma, and human albumin were used to evaluate binding to albumin. Evaluation was carried out by the same experimental procedure and statistical method as in Example 1-1, except that a PBS solution (37 kBq, 50 μL) of [^111In]In-PtDA was used.
(§5) Thereafter, the reaction liquid was added to a spin column (Sephadex G-50; manufactured by Cytiva), and centrifuged at 1500×g at 4° C. for 2 minutes. After separation, the radioactivity of the column and the eluate was measured with a gamma counter.

[3] = tested on: plasma albumin (human plasma); experiment: Evaluation of binding to albumin (human plasma); settings: for radioactivity in the eluate (in words): left to stand in human plasma
Description: as §2, §3, §4, §5

T1 sequence (P07724 25-608): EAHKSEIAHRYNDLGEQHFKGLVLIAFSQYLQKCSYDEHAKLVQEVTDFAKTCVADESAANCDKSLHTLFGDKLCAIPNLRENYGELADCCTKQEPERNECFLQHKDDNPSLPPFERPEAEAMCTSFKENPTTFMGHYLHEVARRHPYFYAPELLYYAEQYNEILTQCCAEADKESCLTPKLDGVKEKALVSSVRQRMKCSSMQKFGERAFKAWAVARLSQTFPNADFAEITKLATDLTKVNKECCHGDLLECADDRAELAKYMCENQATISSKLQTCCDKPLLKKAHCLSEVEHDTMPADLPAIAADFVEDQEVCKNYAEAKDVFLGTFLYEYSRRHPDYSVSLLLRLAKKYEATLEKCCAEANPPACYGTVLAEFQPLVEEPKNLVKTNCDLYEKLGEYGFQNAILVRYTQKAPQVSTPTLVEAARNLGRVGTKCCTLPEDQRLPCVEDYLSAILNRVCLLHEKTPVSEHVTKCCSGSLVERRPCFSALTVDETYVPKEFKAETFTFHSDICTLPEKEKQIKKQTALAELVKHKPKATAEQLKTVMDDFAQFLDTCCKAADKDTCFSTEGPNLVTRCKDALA

Row | radioactivity in the eluate ([2]; mouse plasma) [%] | radioactivity in the eluate ([3]; human plasma) [%] | SMILES | binding to LNCaP cells on adding an excess amount of the PSMA inhibitor (2-PMPA) [1] | binding ability to LNCaP cells compared to PC-3 cells ([1]; 37° C., 1 hour) | radioactivity in the eluate (in words) [2] | radioactivity in the eluate (in words) [3] | binding to LNCaP cells with excess PSMA inhibitor (2-PMPA) ([1]; 2-PMPA 100 μM) [% ID/mg protein] | binding to LNCaP cells ([1]; 37° C., 1 hour) [% ID/mg protein]
1 |  |  | O=C([O-])CN1CCN(C(CCC(=O)NCCCC[C@H](NC(=O)N[C@@H](CCC(=O)O)C(=O)O)C(=O)O)C(=O)[O-])CCN(CC(=O)[O-])CCN(C(CCC(=O)N[C@@H](CCCCNC(=O)CCCc2ccc(I)cc2)C(=O)O)C(=O)[O-])CC1.[111In+3] (some centres unmarked) [[^111In]In-PSMA-DA1] | significantly reduced | high binding ability | significantly higher | significantly higher |  | 
2 | 67.2 | 79.0 | O=C([O-])CN1CCN(C(CCC(=O)NCCC(=O)N2Cc3ccccc3-c3c(nnn3CCOCCOCCOCCOCCC(=O)NCCCC[C@H](NC(=O)N[C@@H](CCC(=O)O)C(=O)O)C(=O)O)-c3ccccc32)C(=O)[O-])CCN(CC(=O)[O-])CCN(C(CCC(=O)N[C@@H](CCCCNC(=O)CCCc2ccc(I)cc2)C(=O)O)C(=O)[O-])CC1.[111In+3] (some centres unmarked) [[^111In]In-PtDA] |  |  |  |  | 0.36 | 15
3 |  |  | O=C(O)CC[C@H](NC(=O)N[C@@H](CCCCNC(=O)[C@H](Cc1ccc2ccccc2c1)NC(=O)[C@H]1CC[C@H](CNC(=O)CCC(C(=O)O)N2CCN(CC(=O)O)CCN(C(CCC(=O)N[C@@H](CCCCNC(=O)CCCc3ccc(I)cc3)C(=O)O)C(=O)O)CCN(CC(=O)O)CC2)CC1)C(=O)O)C(=O)O (some centres unmarked) [[^111In]In-PSMA-NAT-DA1, metal not drawn] | significantly reduced | high binding ability | significantly high | significantly high |  | 
4 |  |  | O=C([O-])CN1CCN(C(CCC(=O)NCCCC[C@H](NC(=O)N[C@@H](CCC(=O)O)C(=O)O)C(=O)O)C(=O)[O-])CCN(CC(=O)[O-])CCN(C(CCC(=O)Nc2ccccc2)C(=O)[O-])CC1.[111In+3] (some centres unmarked) [[^111In]In-PSMA-DB, reference compound] | significantly reduced | high binding ability |  |  |  | 
